Assay results published in patent US10927136B2, “Phosphorus prodrugs of pyrazolo-substituted pyrimidine sGC stimulators” (Cyclerion Therapeutics, Inc., priority 2016, dated 2021).

Assays:
[1] = Ex-vivo rat intestinal fluid stability assay; type: in vitro ADME; set-up: half-life: dose or concentration left out as unconfirmed; conditions: 37° C.; for half-life: rat intestinal (jejunum) fluid, read-out: disappearance half-life (T1/2); for prodrug converted into its parent drug: after 30 minutes of incubation
Method: Phosphate prodrugs disclosed herein were designed to be cleaved by alkaline phosphatase(s) that are present on the apical brush-border membranes of the intestine, after which the more hydrophobic parent compound is readily absorbed. Phosphatases are also present in the liver and in the systemic circulation. In order to test the speed of cleavage of the prodrug into the parent drug, […] solutions of each of the test compounds were incubated in rat intestinal (jejunum) fluid. Samples were taken at times=0, 5, 15, 30 and 60 min and the mixtures were quenched by the addition of acetonitrile containing an internal standard. Samples were analyzed by full scan LC/MS. The following protocol was used:
10 mM DMSO stock solutions were thawed or prepared for the positive control (Enalapril) and each test article. Internal standard (IS) crash solution in acetonitrile (ACN) with 20 ng/ml of Compound Z, depicted below, was prepared. Stock (250 uM) was prepared from 10 mM in 50/50 acetonitrile/H2O. Rat intestinal fluid vials were thawed in a water bath at rt.
In a 96-well, 1 ml plate, 48 uL of rat intestinal fluid was aliquoted in triplicate for each time point. The t0 (“0 min”) time point was prepared separately by adding 450 ul of IS crash solution to 48 ul of intestinal fluid, then adding 2 uL of test compound. 2 ul of the 250 uM substock was added to initiate the reaction at 5 min, 15 min, 30 min, and 60 min. The plate prepared in the above steps was covered with a plastic or foil seal and was set in the 37° C. incubator, lightly shaking. For each time point, 450 ul of IS crash solution was added to quench the reaction. The plates were centrifuged at 4000 RPM for 10 minutes at 4° C. 50 ul of supernatant was transferred into 50 ul of H2O and analyzed using LC/MS.
The disappearance of the prodrug and the conversion to the parent were monitored over time.

[2] = cited from earlier work
[3] = known; cited from earlier work
[4] = human microsomes, after 15 min; cited from earlier work

prodrug remaining uncleaved ([1]; after 60 minutes of incubation) | half-life [1] [min] | prodrug converted into its parent drug [1] | prodrug converted into its parent drug / cleaved ([1]; after 60 minutes of incubation) | SMILES | human half-life (from published data) [2] [min] | cleavage to the parent drug in vivo [3] | hydrolysis of prodrug [4] | quantifiable fostamatinib in subjects ([2]; human clinical trials, oral dosing, after the 2-hour time point)
About 80% | 211 |  |  | O=P(O)(O)OC(Cn1cncn1)(Cn1cncn1)c1ccc(F)cc1F [fosfluconazole] | 90 to 150 | known to cleave slowly to the parent drug in vivo |  | 
less than 10% |  | about 25% |  | O=P(O)(O)OC1(CNc2nc(-c3cc(-c4ccon4)n(Cc4ccccc4F)n3)ncc2F)CCOCC1 [Compound I-3] |  |  |  | 
no prodrug could be detected | 5 | More than 80% |  | O=C1NC(c2ccccc2)(c2ccccc2)C(=O)N1COP(=O)(O)O [fosphenytoin] | 8 to 15 | known to cleave to the parent drug quickly in vivo |  | 
 | 34 | About 50% | About 80% | COc1cc(Nc2ncc(F)c(Nc3ccc4c(n3)N(COP(=O)(O)O)C(=O)C(C)(C)O4)n2)cc(OC)c1OC [fostamatinib] |  | known to cleave to the parent drug quickly in vivo | fully hydrolized | no quantifiable fostamatinib was observed
